From the kinase profiling compilation of Christmann-Franck et al. (2016)
Values joined by “and” are separate entries in the source; they are usually repeats but may differ in a detail not shown here. Equal entries are not always repeated.

How the values were obtained:
Assay in all cases: KINOMEscan competition binding
Conditions in all cases: compound 10.0 µM
[1] = biological target: MAPK10 (human) (UniProt P53779)
[2] = biological target: FER (human) (UniProt P16591)
[3] = tested on: EIF2AK4 KD2 (human), Q9P2K8 [S808G]
EIF2AK4 KD2 (human), Q9P2K8 [S808G], sequence (Q9P2K8 whole entry S808G, looked up): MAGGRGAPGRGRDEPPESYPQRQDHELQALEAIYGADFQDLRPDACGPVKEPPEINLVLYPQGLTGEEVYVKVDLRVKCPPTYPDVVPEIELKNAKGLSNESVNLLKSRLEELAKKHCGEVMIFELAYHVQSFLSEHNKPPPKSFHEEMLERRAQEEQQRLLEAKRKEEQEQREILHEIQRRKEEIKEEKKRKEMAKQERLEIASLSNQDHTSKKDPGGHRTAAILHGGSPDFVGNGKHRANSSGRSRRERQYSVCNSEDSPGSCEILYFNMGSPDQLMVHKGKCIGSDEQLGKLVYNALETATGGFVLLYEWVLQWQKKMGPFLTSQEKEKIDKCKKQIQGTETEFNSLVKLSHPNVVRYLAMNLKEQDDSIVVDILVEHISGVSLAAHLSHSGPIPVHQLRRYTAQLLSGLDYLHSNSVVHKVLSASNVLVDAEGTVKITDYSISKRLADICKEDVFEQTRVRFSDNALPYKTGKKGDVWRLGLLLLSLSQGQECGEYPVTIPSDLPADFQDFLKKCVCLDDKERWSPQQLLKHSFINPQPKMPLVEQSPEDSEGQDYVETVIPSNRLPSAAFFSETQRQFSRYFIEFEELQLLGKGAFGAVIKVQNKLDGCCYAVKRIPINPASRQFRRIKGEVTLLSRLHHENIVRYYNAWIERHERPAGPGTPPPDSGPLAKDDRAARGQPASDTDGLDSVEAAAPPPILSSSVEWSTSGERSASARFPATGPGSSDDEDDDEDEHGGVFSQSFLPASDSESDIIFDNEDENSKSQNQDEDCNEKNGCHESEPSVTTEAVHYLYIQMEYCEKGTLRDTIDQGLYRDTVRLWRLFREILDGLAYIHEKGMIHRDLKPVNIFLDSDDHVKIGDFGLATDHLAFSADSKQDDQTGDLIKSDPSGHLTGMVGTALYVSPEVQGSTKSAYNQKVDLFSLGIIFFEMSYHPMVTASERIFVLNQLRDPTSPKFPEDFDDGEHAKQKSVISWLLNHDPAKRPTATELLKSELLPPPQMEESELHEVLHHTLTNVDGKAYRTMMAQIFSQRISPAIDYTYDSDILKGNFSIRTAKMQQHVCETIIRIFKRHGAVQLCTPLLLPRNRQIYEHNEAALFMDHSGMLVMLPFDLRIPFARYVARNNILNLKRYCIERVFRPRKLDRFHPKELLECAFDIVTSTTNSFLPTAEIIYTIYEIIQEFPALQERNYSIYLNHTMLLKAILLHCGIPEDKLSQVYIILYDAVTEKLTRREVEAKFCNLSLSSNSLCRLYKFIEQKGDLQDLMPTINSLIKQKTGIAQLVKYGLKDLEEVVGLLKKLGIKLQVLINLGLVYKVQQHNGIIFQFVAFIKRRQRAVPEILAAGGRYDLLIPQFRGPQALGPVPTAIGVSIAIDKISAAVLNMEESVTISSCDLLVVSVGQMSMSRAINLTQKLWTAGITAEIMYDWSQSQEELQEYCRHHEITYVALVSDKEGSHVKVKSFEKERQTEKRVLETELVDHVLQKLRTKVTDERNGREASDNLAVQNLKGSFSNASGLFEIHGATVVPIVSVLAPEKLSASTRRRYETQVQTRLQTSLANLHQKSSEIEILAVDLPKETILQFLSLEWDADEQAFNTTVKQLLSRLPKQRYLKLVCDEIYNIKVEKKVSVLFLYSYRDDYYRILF

[4] = biological target: BMPR1B (human) (UniProt O00238)
BMPR1B (human), sequence (O00238 whole entry, looked up): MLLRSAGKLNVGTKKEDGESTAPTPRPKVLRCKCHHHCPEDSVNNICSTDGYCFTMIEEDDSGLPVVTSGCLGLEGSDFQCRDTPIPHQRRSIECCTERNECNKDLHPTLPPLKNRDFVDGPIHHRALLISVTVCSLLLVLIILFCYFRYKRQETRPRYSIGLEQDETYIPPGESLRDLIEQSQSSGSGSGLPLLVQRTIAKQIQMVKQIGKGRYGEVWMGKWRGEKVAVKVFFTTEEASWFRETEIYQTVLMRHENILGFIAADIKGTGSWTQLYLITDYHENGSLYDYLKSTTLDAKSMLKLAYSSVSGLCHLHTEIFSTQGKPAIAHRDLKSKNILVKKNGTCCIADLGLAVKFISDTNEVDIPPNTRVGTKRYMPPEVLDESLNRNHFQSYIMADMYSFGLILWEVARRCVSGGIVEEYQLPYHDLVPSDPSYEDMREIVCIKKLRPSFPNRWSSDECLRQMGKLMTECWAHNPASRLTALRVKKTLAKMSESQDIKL

[5] = biological target: STK38L (human) (UniProt Q9Y2H1)
[6] = biological target: MINK1 (human) (UniProt Q8N4C8)
MINK1 (human), sequence (Q8N4C8 whole entry, looked up): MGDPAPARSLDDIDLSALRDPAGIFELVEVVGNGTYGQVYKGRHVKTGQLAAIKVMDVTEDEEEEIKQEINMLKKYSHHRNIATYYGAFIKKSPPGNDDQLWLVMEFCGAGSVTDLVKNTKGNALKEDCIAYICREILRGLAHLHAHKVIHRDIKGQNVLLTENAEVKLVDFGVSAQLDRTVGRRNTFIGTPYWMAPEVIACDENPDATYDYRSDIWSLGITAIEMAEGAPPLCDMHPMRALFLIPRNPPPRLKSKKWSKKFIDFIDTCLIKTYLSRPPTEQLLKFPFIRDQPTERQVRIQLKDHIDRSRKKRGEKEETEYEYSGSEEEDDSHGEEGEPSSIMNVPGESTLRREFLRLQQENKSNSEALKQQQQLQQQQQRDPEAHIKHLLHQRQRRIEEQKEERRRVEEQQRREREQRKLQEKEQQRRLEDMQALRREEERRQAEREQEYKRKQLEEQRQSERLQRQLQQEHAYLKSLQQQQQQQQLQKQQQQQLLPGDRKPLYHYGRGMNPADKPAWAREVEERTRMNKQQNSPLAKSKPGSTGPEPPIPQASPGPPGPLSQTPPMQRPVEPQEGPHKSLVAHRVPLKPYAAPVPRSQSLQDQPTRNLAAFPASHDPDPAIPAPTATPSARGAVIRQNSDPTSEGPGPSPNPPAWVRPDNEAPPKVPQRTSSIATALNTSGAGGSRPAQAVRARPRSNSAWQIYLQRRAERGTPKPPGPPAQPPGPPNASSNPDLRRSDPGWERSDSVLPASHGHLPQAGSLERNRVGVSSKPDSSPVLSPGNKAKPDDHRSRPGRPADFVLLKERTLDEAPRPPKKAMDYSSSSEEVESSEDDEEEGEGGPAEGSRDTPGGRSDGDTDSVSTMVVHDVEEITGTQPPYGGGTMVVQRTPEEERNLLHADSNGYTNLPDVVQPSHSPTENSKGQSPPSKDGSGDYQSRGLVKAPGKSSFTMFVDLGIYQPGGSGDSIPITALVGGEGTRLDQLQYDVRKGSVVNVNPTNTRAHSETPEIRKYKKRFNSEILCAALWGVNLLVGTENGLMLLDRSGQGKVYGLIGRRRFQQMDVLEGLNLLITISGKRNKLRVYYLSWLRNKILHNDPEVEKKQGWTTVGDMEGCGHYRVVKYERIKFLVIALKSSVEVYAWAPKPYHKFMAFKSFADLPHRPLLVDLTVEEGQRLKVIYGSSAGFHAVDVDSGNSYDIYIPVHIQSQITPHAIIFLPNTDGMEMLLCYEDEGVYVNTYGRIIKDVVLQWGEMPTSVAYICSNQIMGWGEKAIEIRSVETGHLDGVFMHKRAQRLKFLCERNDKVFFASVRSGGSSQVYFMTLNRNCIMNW

[7] = biological target: PIM2 (human) (UniProt Q9P1W9)
[8] = biological target: MAP2K4 (human) (UniProt P45985)
[9] = biological target: EPHA8 (human) (UniProt P29322)
[10] = biological target: MKNK2 (human) (UniProt Q9HBH9)
[11] = biological target: MLTK (human) (UniProt Q9NYL2)
MLTK (human), sequence (Q9NYL2 whole entry, looked up): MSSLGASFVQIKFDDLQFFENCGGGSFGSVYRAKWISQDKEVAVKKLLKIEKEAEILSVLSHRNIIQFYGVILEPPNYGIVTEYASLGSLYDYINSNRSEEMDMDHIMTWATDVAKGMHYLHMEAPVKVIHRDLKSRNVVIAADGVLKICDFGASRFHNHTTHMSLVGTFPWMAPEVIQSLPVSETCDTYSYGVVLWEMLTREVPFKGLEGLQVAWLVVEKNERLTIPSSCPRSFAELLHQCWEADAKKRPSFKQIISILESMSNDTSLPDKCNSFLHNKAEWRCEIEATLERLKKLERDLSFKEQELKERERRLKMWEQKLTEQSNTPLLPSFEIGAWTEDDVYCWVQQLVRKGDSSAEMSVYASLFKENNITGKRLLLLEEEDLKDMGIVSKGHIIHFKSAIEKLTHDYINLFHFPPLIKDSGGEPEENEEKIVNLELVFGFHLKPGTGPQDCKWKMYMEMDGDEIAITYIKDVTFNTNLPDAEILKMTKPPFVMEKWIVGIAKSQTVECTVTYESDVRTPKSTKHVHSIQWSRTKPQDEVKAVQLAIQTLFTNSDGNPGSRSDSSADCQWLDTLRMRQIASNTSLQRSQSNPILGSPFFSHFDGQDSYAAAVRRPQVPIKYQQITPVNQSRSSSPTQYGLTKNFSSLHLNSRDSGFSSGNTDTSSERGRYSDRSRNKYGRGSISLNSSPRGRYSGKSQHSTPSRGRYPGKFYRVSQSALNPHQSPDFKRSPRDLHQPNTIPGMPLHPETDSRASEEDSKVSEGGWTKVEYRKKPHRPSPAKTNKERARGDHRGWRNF

[12] = biological target: MAP2K2 (human) (UniProt P36507)
[13] = biological target: STK32B (human) (UniProt Q9NY57)
[14] = biological target: NTRK1 (human) (UniProt P04629)
[15] = biological target: DYRK1B (human) (UniProt Q9Y463)
[16] = biological target: FES (human) (UniProt P07332)
[17] = biological target: LCK (human) (UniProt P06239)
[18] = biological target: NTRK3 (human) (UniProt Q16288)
[19] = biological target: SLK (human) (UniProt Q9H2G2)
[20] = biological target: FGFR3 (human) (UniProt P22607)
[21] = biological target: TTK (human) (UniProt P33981)
[22] = biological target: GAK (human) (UniProt O14976)
[23] = biological target: EPHA1 (human) (UniProt P21709)
[24] = biological target: MAP3K10 (human) (UniProt Q02779)
[25] = biological target: MAP4K1 (human) (UniProt Q92918)
[26] = biological target: MAP2K6 (human) (UniProt P52564)
MAP2K6 (human), sequence (P52564 whole entry, looked up): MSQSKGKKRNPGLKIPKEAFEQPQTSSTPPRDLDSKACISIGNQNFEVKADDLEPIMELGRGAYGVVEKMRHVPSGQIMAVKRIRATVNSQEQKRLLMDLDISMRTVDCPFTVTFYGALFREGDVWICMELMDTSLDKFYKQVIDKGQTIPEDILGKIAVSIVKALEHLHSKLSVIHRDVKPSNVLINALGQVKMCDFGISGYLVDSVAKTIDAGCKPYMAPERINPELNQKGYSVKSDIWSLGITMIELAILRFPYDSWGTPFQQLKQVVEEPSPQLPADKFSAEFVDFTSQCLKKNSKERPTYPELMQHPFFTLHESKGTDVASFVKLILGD

[27] = biological target: SRMS (human) (UniProt Q9H3Y6)
SRMS (human), sequence (Q9H3Y6 whole entry, looked up): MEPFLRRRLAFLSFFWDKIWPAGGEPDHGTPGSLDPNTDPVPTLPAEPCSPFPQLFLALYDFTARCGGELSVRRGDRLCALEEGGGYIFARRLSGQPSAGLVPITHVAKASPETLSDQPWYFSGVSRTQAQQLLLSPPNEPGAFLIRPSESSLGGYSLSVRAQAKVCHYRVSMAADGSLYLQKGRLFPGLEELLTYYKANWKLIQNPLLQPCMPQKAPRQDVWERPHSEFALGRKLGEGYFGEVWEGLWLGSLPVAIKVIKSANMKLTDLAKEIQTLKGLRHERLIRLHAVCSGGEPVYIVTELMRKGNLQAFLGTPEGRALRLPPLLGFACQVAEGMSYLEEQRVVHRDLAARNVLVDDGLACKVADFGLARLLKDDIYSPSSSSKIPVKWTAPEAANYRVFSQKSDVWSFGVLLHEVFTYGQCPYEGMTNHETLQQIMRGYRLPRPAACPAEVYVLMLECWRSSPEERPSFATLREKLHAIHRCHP

[28] = biological target: PAK7 (human) (UniProt Q9P286)
[29] = biological target: BLK (human) (UniProt P51451)
[30] = biological target: FLT3 (human) (UniProt P36888)
[31] = biological target: RPS6KA1 KD1 (human) (UniProt Q15418)
[32] = biological target: RPS6KA3 KD1 (human) (UniProt P51812)
[33] = biological target: FGFR2 (human) (UniProt P21802)
[34] = biological target: DCLK1 (human) (UniProt O15075)
[35] = biological target: GSK3B (human) (UniProt P49841)
[36] = biological target: PDGFRA (human) (UniProt P16234)
[37] = biological target: CSNK1G1 (human) (UniProt Q9HCP0)
[38] = biological target: STK16 (human) (UniProt O75716)
[39] = biological target: PAK4 (human) (UniProt O96013)
[40] = biological target: TAOK3 (human) (UniProt Q9H2K8)

| Compound | kinase still bound, per cent of control [1] | kinase still bound, per cent of control [2] | kinase still bound, per cent of control [3] | kinase still bound, per cent of control [4] | kinase still bound, per cent of control [5] | kinase still bound, per cent of control [6] | kinase still bound, per cent of control [7] | kinase still bound, per cent of control [8] | kinase still bound, per cent of control [9] | kinase still bound, per cent of control [10] | kinase still bound, per cent of control [11] | kinase still bound, per cent of control [12] | kinase still bound, per cent of control [14] | kinase still bound, per cent of control [15] | kinase still bound, per cent of control [16] | kinase still bound, per cent of control [17] | kinase still bound, per cent of control [18] | kinase still bound, per cent of control [19] | kinase still bound, per cent of control [20] | kinase still bound, per cent of control [21] | further results |
| --- | --- | --- | --- | --- | --- | --- | --- | --- | --- | --- | --- | --- | --- | --- | --- | --- | --- | --- | --- | --- | --- |
| C[C@@H](Oc1cc(-n2cnc3ccc(CN4CCN(C)CC4)cc32)sc1C(N)=O)c1ccccc1C(F)(F)F | 100% | 100% | 29% | 100% | 100% | 29% | 77% | 86% | 90% | 23% | 100% | 79% | 74% | 89% | 88% | 70% | 100% | 0.25% | 80% | 95% | kinase still bound, per cent of control [13]: 100%; kinase still bound, per cent of control [22]: 100%; kinase still bound, per cent of control [23]: 94%; kinase still bound, per cent of control [24]: 92%; kinase still bound, per cent of control [25]: 83%; kinase still bound, per cent of control [26]: 98%; kinase still bound, per cent of control [27]: 74%; kinase still bound, per cent of control [28]: 60%; kinase still bound, per cent of control [29]: 100%; kinase still bound, per cent of control [30]: 11%; kinase still bound, per cent of control [31]: 29%; kinase still bound, per cent of control [32]: 0.5%; kinase still bound, per cent of control [33]: 75%; kinase still bound, per cent of control [34]: 40%; kinase still bound, per cent of control [35]: 100%; kinase still bound, per cent of control [36]: 100%; kinase still bound, per cent of control [37]: 100%; kinase still bound, per cent of control [38]: 65%; kinase still bound, per cent of control [39]: 37% |
| Cc1ccc2nc(NCCN)c3ncc(C)n3c2c1 | 100% | 98% | 98% | 71% | 100% | 100% | 100% | 100% | 100% | 90% | 96% | 77% | 100% | 85% | 100% | 98% | 100% | 100% | 99% | 100% | kinase still bound, per cent of control [13]: 100%; kinase still bound, per cent of control [22]: 79%; kinase still bound, per cent of control [23]: 79%; kinase still bound, per cent of control [24]: 100%; kinase still bound, per cent of control [40]: 59%; kinase still bound, per cent of control [25]: 81%; kinase still bound, per cent of control [26]: 88%; kinase still bound, per cent of control [27]: 90%; kinase still bound, per cent of control [28]: 100%; kinase still bound, per cent of control [29]: 100%; kinase still bound, per cent of control [30]: 100%; kinase still bound, per cent of control [31]: 79%; kinase still bound, per cent of control [32]: 100%; kinase still bound, per cent of control [33]: 100%; kinase still bound, per cent of control [34]: 84%; kinase still bound, per cent of control [35]: 68%; kinase still bound, per cent of control [37]: 94%; kinase still bound, per cent of control [38]: 100%; kinase still bound, per cent of control [39]: 100% |
| O=C(NOC[C@H](O)CO)c1ccc(F)c(F)c1Nc1ccc(I)cc1F | 90% | 100% | 84% | 81% | 100% | 94% | 75% | 83% | 94% | 100% | 88% | 0.2% | 100% | 98% | 100% | 88% | 93% | 93% | 100% | 100% | kinase still bound, per cent of control [22]: 71%; kinase still bound, per cent of control [23]: 91%; kinase still bound, per cent of control [24]: 100%; kinase still bound, per cent of control [40]: 89%; kinase still bound, per cent of control [25]: 77%; kinase still bound, per cent of control [26]: 100%; kinase still bound, per cent of control [27]: 95%; kinase still bound, per cent of control [28]: 100%; kinase still bound, per cent of control [29]: 83%; kinase still bound, per cent of control [30]: 82% and 80%; kinase still bound, per cent of control [31]: 100%; kinase still bound, per cent of control [32]: 100%; kinase still bound, per cent of control [33]: 100%; kinase still bound, per cent of control [34]: 100%; kinase still bound, per cent of control [35]: 68%; kinase still bound, per cent of control [36]: 96%; kinase still bound, per cent of control [37]: 61%; kinase still bound, per cent of control [38]: 99%; kinase still bound, per cent of control [39]: 100% |
